Consider eight molecules from PMC12837517, “Valorization of Onion-Processing Waste: Digestive Fate, Bioavailability, and Cellular Antioxidant Properties of Red and Yellow Peels Polyphenols” (Antioxidants, 2025).

Where two headings read alike, the source gives them in different places. Marks after values point to notes of the source that are not given here.

The subject of data set [1] is Caco-2 cell monolayer. Briefly: Transport of polyphenols across differentiated Caco-2 monolayers (apical stability, basolateral bioavailability, Papp).
Description: (§1) To determine how effectively specific polyphenols might be absorbed through the human intestine, an in vitro assay was conducted utilizing the Caco-2 cell line, which, when fully differentiated, mimics the human intestinal barrier, as described by D’Antuono et al. [16]. […] The cells were maintained for 21 days in a standard culture condition to ensure complete differentiation into a tight monolayer. The medium in both the apical and basolateral compartments was refreshed twice weekly.
(§2) The development of a robust epithelial barrier was confirmed by measuring the Transepithelial Electrical Resistance (TEER) using a volt–ohm meter. […] Prior to the experiment, the monolayers were rinsed with a pH 5.5 PBS. The apical chamber then received 2 mL of phenol red-free DMEM containing hydroalcoholic extracts from red and yellow onion peels, adjusted to a final total polyphenol concentration of 60 μg/mL and 30 μg/mL, respectively. The system was incubated at 37 °C, and samples from both the apical and basolateral chambers were collected for 30, 60, 90, and 120 min to track the time-dependent flux of the compounds. These samples were flash-frozen at −80 °C pending High-Performance Liquid Chromatography (HPLC) analysis.
(§3) For the assessment of polyphenol accumulation within the Caco-2 cells, the monolayers were first subjected to a sequential wash with PBS pH 5.5, and then with a solution of 0.1% fatty acid-free bovine albumin in PBS pH 5.5. The cells were then mechanically harvested into 1 mL of cold PBS pH 5.5 and stored at −80 °C under a nitrogen atmosphere. […] Polyphenols were chemically isolated from the sonicated Caco-2 cells and the basolateral solutions via a liquid–liquid extraction technique, employing ethyl acetate EtOAc stabilized with 0.01% butylated hydroxytoluene (BHT). This extraction was repeated three times, and the pooled organic layers were dried under vacuum before being dissolved in 200 μL mobile phase for HPLC analysis.
Data set [2] can be described thus: Two-step in vitro gastrointestinal digestion, digestive stability of polyphenols. It is filed as in vitro ADME. As to conditions: for Digestive Stability (%) Gastric %: after gastric phase (pepsin, pH 2.5, 37 °C, 1 h); for Digestive Stability (%) Intestinal %: after small intestinal phase (pH 6.5, 37 °C, 2 h). How it is done: The digestive stability of polyphenols was assessed using a two-step in vitro gastrointestinal digestion model, as described by Cardinali et al.. Aliquots (3 mL) of aqueous onion peel extracts (500 μg/mL total polyphenols, determined by HPLC-DAD) were diluted with 4.5 mL of 0.9% NaCl at pH 7. The gastric phase was initiated with addition of 0.9 mL of porcine pepsin solution (40 mg/mL) in 0.1 N HCl and adjustment of pH to 2.5 ± 0.1 with 1 N HCl. Samples were incubated at 37 °C for 1 h. Following gastric digestion, the small intestinal phase was initiated by adjusting the pH of gastric digesta to 5.3 with 100 mM NaHCO3 and 1 N NaOH, followed by the addition of 2.7 mL of small intestinal enzyme solution (lipase 2 mg/mL, pancreatin 4 mg/mL, and bile 24 mg/mL in 100 mM NaHCO3). The final sample pH was adjusted to 6.5 ± 0.1 with 1 N NaOH, the volume was standardized to 15 mL with saline solution (0.9% NaCl), and the sample was incubated at 37 °C for 2 h. After both digestion steps (gastric and small intestinal), the samples were collected and centrifuged (10,000× g, 1 h, 4 °C), filtered (0.45 μm), and then analyzed by HPLC-DAD. Digestive stability (%) was calculated by comparing pre- and post-digestion polyphenol content.

The test system of the next data set is Caco-2 cells. Briefly: Polyphenol accumulation within Caco-2 cells (uptake). It is filed as in vitro ADME, human.
Data set [3] in a line: Transport of polyphenols across differentiated Caco-2 monolayers (apical stability, basolateral bioavailability, Papp). As to conditions: human, Caco-2. On the technique in general: Caco-2 cells form a polarised layer with tight junctions and transporters.
Description: as §1, §2, §3
Data set [4] relates to Caco-2 cell monolayer.
Description: as §1, §2, §3
On the set-up of data set [5]: method as in PMID 34388527. The settings on record: at room temperature; cited from earlier work.
Where [6] appears, read: red onion peels “Rossa di Tropea” extract.
The mark [7] stands for this setting: yellow onion peels “Recas” extract.
[8] abbreviates: yellow onion peels extract, 30 min (maximum).
[9] abbreviates: yellow onion peels extract, 30-120 min.
The mark [10] stands for this setting: yellow onion peels “Recas” extract, listed as quercetin aglycone.

Description for Caco-2 cells: as §1, §2, §3

In the case of `OC[C@H]1O[C@@H](Oc2cc3c(O)cc(O)cc3[o+]c2-c2ccc(O)c(O)c2)[C@H](O)[C@@H](O)[C@@H]1O` [Cyanidin 3-glucoside], the “Papp (apical-to-basolateral)” value in the data set on Caco-2 cell monolayer [1] (red onion peels extract) stood at 5.1 ×10⁻⁶ cm/s. Also, in the data set with Caco-2 cell monolayer [1] (red onion peels extract, 30-120 min), the “detection in basolateral compartment” value is “present in the basolateral side at 60 and 120 min”.

As to `O=C(O)c1ccc(O)c(O)c1` [Protocatechuic acid], in data set [2] (in both onion varieties, phase not specified, read-out: recovery after digestion), the recovery is greater than 100%. Moreover, in data set [2] (setting [6]), the “Digestive Stability (%) Gastric %” value was greater than 100.00% and the “Digestive Stability (%) Intestinal %” value is given as greater than 100.00%. Besides, in data set [2] (setting [7]), the “Digestive Stability (%) Gastric %” value is reported as 90.32 ± 4.41 ^b % and the “Digestive Stability (%) Intestinal %” value is listed as >100.00 ^a %. Moreover, in the data set with Caco-2 cells (red onion peels extract, 30 min), the cellular accumulation was found to be 0.013 ng/µg protein. In the data set with Caco-2 cells (setting [8]), this molecule yielded a cellular accumulation of 0.050 ng/µg protein. Further, the “stability in apical culture medium over time” value in the data set with Caco-2 cell monolayer [1] (setting [9]) is “consistent stability”. In addition, in data set [3], the Papp A→B – broadly, how fast a substance crosses the layer from the apical side – at 120 min, 30 µg/mL total polyphenols was 8.4 ×10⁻⁶ cm/s; the bioavailability (commonly dose-corrected exposure relative to a reference, in per cent) at 90 min, 30 µg/mL total polyphenols turned out to be 6.8%; the bioavailability at 120 min, 30 µg/mL total polyphenols was determined as 7.7%.

Turning to `O=c1c(O[C@@H]2O[C@H](CO)[C@@H](O)[C@H](O)[C@H]2O)c(-c2ccc(O[C@@H]3O[C@H](CO)[C@@H](O)[C@H](O)[C@H]3O)c(O)c2)oc2cc(O)cc(O)c12` [Quercetin 3,4′-diglucoside], in the data set with Caco-2 cell monolayer [4], the “Papp (apical-to-basolateral)” value worked out at 6.1 ×10⁻⁶ cm/s.

With `O=c1c(O)c(-c2ccc(O[C@@H]3O[C@H](CO)[C@@H](O)[C@H](O)[C@H]3O)c(O)c2)oc2cc(O[C@@H]3O[C@H](CO)[C@@H](O)[C@H](O)[C@H]3O)cc(O)c12` [Quercetin 7,4′-diglucoside], the “Papp (apical-to-basolateral)” value with Caco-2 cell monolayer [4] turned out to be 5.9 ×10⁻⁶ cm/s.

With `O=c1c(O)c(-c2ccc(O)c(O)c2)oc2cc(O)cc(O)c12` [Quercetin], in data set [2] (setting [6]), the “Digestive Stability (%) Gastric %” value is reported as 32.34 ± 3.97 ^a % and the “Digestive Stability (%) Intestinal %” value is given as 15.37 ± 2.55 ^b %. In data set [2] (setting [7]), the “Digestive Stability (%) Gastric %” value is on record as 3.44 ± 0.56 ^b % and the “Digestive Stability (%) Intestinal %” value was 15.64 ± 0.96 ^a %. For the same molecule, in data set [2] (setting [10]), the “Digestive Stability (%) Gastric %” value was 3.44% and the “Digestive Stability (%) Intestinal %” value worked out at 15.64%. Besides, the maximum cellular accumulation in the data set on Caco-2 cells (red onion peels extract, time not stated) is 1.468 ng/µg protein. Also, in the data set on Caco-2 cell monolayer [1] (setting [9]), the “detection in basolateral compartment” value is on record as “not detected”. Also, in data set [3], the Papp A→B at 120 min, 60 µg/mL total polyphenols came to 1.1 ×10⁻⁶ cm/s; the bioavailability at 60 min, 60 µg/mL total polyphenols amounted to 0.6%; the recovery at 30 min, 60 μg/mL total polyphenols was found to be 38%; the recovery at 120 min, 60 μg/mL total polyphenols worked out at 7%.

As to `O=c1c(O)c(-c2ccc(O[C@@H]3O[C@H](CO)[C@@H](O)[C@H](O)[C@H]3O)c(O)c2)oc2cc(O)cc(O)c12` [Spiraeoside, quercetin-4′-O-glucoside], in data set [2] (setting [6]), the “Digestive Stability (%) Gastric %” value is reported as 99.51 ± 3.50 ^a % and the “Digestive Stability (%) Intestinal %” value is reported as 39.97 ± 6.96 ^b %. Also, in data set [2] (setting [7]), the “Digestive Stability (%) Gastric %” value is reported as 81.11 ± 6.54 ^a % and the “Digestive Stability (%) Intestinal %” value is on record as 36.76 ± 3.49 ^b %. This molecule also gave a cellular accumulation in the data set on Caco-2 cells (red onion peels extract, 90 min (maximum)) of 0.142 ng/µg protein. For the same molecule, the cellular accumulation in the data set with Caco-2 cells (setting [8]) came to 0.162 ng/µg protein. Further, in data set [3], the Papp A→B at 120 min, 30 µg/mL total polyphenols is 5.5 ×10⁻⁶ cm/s; the bioavailability at 90 min, 30 µg/mL total polyphenols is roughly 8%; the bioavailability at 120 min, 30 µg/mL total polyphenols is roughly 8%; the recovery at 30 min, 60 μg/mL total polyphenols stood at 78%. The recovery at 120 min, 60 μg/mL total polyphenols in data set [3] was 62%.

In the case of `COc1cc(-c2oc3cc(O)cc(O)c3c(=O)c2O)ccc1O` [isorhamnetin], the cellular accumulation in the data set on Caco-2 cells (red onion peels extract, 120 min) was found to be 0.040 ng/µg protein.

For `O=C1c2c(O)cc(O)cc2OC(c2ccc(O)c(O)c2)C1O` (stereo not shown) [taxifolin], the solubility in data set [5] is reported as 0.1%.
